{"source": "patent US9114067B2", "about": "“Local administration of gallium compositions to treat pain” (priority 2006, dated 2015)", "key": {"postherpetic neuralgia [1]": {"test_system": "postherpetic neuralgia", "test": "Case report: gallium maltolate cream to treat postherpetic neuralgia (person)", "type": "in vivo, human", "settings": "tried over about three years before gallium treatment", "procedure": "A person had been experiencing postherpetic neuralgia with erythema on the left side of their face for approximately three years. The pain was so severe that it interfered with sleep and other daily activities. During that period they had tried numerous systemic analgesics to relieve the pain, including amitriptyline 25 mg BID, methadone 5 mg BID, carbamazepine 100 mg BID, gabapentin 200 mg QD, oxycodone 20 mg BID, naproxen, acetaminophen, and intravenous hydrogen peroxide. […] They then began treatment using the topical gallium maltolate formulation of Example 1, above. This formulation was applied three times per day to the affected area, at about 8 AM, 1 PM, and 9 PM, every day for four weeks. The formulation was administered by dipping a fingertip lightly into the formulation, and then smearing the formulation from the fingertip onto the affected area."}, "vaginal inflammation": {"test_system": "vaginal inflammation", "test": "Case report: gallium maltolate cream to treat pain and itching associated with vaginal inflammation (person)", "type": "in vivo, human", "settings": "for effect of earlier topical treatment on vaginal inflammation symptoms: same patient before gallium treatment"}, "[2]": {"test_system": "non-malignant neuropathic pain", "settings": "cited from earlier work"}, "[3]": {"test_system": "painful diabetic neuropathy", "settings": "Wiffen et al. 2005; cited from earlier work"}, "[4]": {"test_system": "peripheral neuropathic pain", "settings": "cited from earlier work"}, "postherpetic neuralgia [5]": {"test_system": "postherpetic neuralgia", "settings": "cited from earlier work"}, "[6]": {"settings": "meta-analysis, Eisenberg et al. 2005"}}, "note": "Read-outs that look alike come from different tables or passages of the source.", "data": [{"molecule": "OO", "note": "[hydrogen peroxide]", "values": [{"measurement": "pain relief from earlier treatments tried by the same patient", "setting": "postherpetic neuralgia [1]", "value": "None of these treatments produced significant pain relief"}]}, {"molecule": "CCOC(=O)c1ccc(N)cc1", "note": "[benzocaine]", "values": [{"measurement": "effect of earlier topical treatment on vaginal inflammation symptoms", "setting": "vaginal inflammation", "value": "little effect"}]}, {"molecule": "CCC(=O)C(CC(C)N(C)C)(c1ccccc1)c1ccccc1", "note": "(stereo not shown) [methadone]", "values": [{"measurement": "efficacy in intermediate-term (8-56 day) studies", "setting": "[2]; [6]", "value": "marginal efficacy"}, {"measurement": "efficacy in short-term (24 hour) studies", "setting": "[2]; [6]", "value": "marginal to no efficacy"}, {"measurement": "pain relief from earlier treatments tried by the same patient", "setting": "postherpetic neuralgia [1]", "value": "None of these treatments produced significant pain relief"}]}, {"molecule": "COc1ccc2cc([C@H](C)C(=O)O)ccc2c1", "note": "[naproxen]", "values": [{"measurement": "pain relief from earlier treatments tried by the same patient", "setting": "postherpetic neuralgia [1]", "value": "None of these treatments produced significant pain relief"}]}, {"molecule": "CC(=O)Nc1ccc(O)cc1", "note": "[acetaminophen]", "values": [{"measurement": "pain relief from earlier treatments tried by the same patient", "setting": "postherpetic neuralgia [1]", "value": "None of these treatments produced significant pain relief"}]}, {"molecule": "O=C1NC(=O)C(c2ccccc2)(c2ccccc2)N1", "note": "[phenytoin]", "values": [{"measurement": "NNT for moderate pain relief", "setting": "[3]", "value": 2.1}]}, {"molecule": "CN(C)CCC=C1c2ccccc2CCc2ccccc21", "note": "[amitriptyline]", "values": [{"measurement": "pain relief from earlier treatments tried by the same patient", "setting": "postherpetic neuralgia [1]", "value": "None of these treatments produced significant pain relief"}, {"measurement": "NNT (number needed to treat) for moderate pain relief", "setting": "[4]; Saarto and Wiffen 2005", "value": 2}, {"measurement": "share of those treated with at least moderate pain relief", "setting": "[4]; explanation of NNT 2", "value": 50, "unit": "%"}]}, {"molecule": "CN1CC[C@]23CCCC[C@H]2[C@H]1Cc1ccc(O)cc13", "note": "[levorphanol]", "values": [{"measurement": "efficacy in intermediate-term (8-56 day) studies", "setting": "[2]; [6]", "value": "marginal efficacy"}, {"measurement": "efficacy in short-term (24 hour) studies", "setting": "[2]; [6]", "value": "marginal to no efficacy"}, {"measurement": "subjects who dropped out of the study due to drug side effects", "setting": "postherpetic neuralgia [5]; Rowbotham et al. 2003", "value": 31, "unit": "%"}, {"measurement": "average reduction in pain", "setting": "postherpetic neuralgia [5]; high dose, Rowbotham et al. 2003", "value": 33, "unit": "%"}, {"measurement": "average reduction in pain", "setting": "postherpetic neuralgia [5]; low dose, Rowbotham et al. 2003", "value": 14, "unit": "%"}]}, {"molecule": "NCC1(CC(=O)O)CCCCC1", "note": "[gabapentin]", "values": [{"measurement": "NNT for moderate pain relief", "setting": "postherpetic neuralgia [5]; postherpetic neuralgia, Wiffen et al. 2005", "value": 3.2}, {"measurement": "pain relief from earlier treatments tried by the same patient", "setting": "postherpetic neuralgia [1]", "value": "None of these treatments produced significant pain relief"}, {"measurement": "NNT for moderate pain relief", "setting": "[3]", "value": 3.8}]}, {"molecule": "Clc1ccc(COC(Cn2ccnc2)c2ccc(Cl)cc2Cl)c(Cl)c1", "note": "(stereo not shown) [miconazole]", "values": [{"measurement": "local tolerability of earlier topical treatment", "setting": "vaginal inflammation; same patient", "value": "irritating"}, {"measurement": "effect of earlier topical treatment on vaginal inflammation symptoms", "setting": "vaginal inflammation", "value": "ineffective"}]}, {"molecule": "CN1CC[C@]23c4c5ccc(O)c4O[C@H]2[C@@H](O)C=C[C@H]3[C@H]1C5", "note": "[morphine]", "values": [{"measurement": "efficacy in intermediate-term (8-56 day) studies", "setting": "[2]; in vivo", "value": "marginal efficacy"}, {"measurement": "efficacy in short-term (24 hour) studies", "setting": "[2]; in vivo", "value": "marginal to no efficacy"}]}, {"molecule": "COc1ccc2c3c1O[C@H]1C(=O)CC[C@@]4(O)[C@@H](C2)N(C)CC[C@]314", "note": "[oxycodone]", "values": [{"measurement": "efficacy in intermediate-term (8-56 day) studies", "setting": "[2]; [6]", "value": "marginal efficacy"}, {"measurement": "efficacy in short-term (24 hour) studies", "setting": "[2]; [6]", "value": "marginal to no efficacy"}, {"measurement": "pain relief from earlier treatments tried by the same patient", "setting": "postherpetic neuralgia [1]", "value": "None of these treatments produced significant pain relief"}]}, {"molecule": "NC(=O)N1c2ccccc2C=Cc2ccccc21", "note": "[carbamazepine]", "values": [{"measurement": "pain relief from earlier treatments tried by the same patient", "setting": "postherpetic neuralgia [1]", "value": "None of these treatments produced significant pain relief"}, {"measurement": "NNT for moderate pain relief", "setting": "[3]", "value": 2.3}]}]}
